# Reference: US10670605B2, “Cysteine reactive probes and uses thereof” (The Scripps Research Institute, priority 2015, dated 2020)
# Key:
# Assay in all cases: Competitive isoTOP-ABPP, cell lysates;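 on isoTOP-ABPP reactivity profile ratio, P09211 C48: Heavy/light ratio DMSO over fragment-treated so higher means more cysteine engagement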;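 on isoTOP-ABPP reactivity profile ratio, Q15084 C190: Heavy/light ratio DMSO over fragment-treated so higher means more cysteine engagement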
# Type in all cases: binding
# GSTP1 C48 (P09211) = GSTP1 C48 (P09211) (Homo sapiens, UniProt P09211); settings: for isoTOP-ABPP reactivity profile ratio, P09211_C48 / isoTOP-ABPP reactivity ratio, P09211_C48: 500 μm; for isoTOP-ABPP ratio, P09211_C48: 500 μM, invitro;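 on isoTOP-ABPP reactivity profile ratio, P09211 C48: Heavy/light ratio DMSO over fragment-treated so higher means more cysteine engagement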
# PDIA6 C190 (Q15084) = molecular target: T1, PDIA6 C190 (Q15084) (Homo sapiens, UniProt Q15084); settings: for isoTOP-ABPP reactivity profile ratio, Q15084_C190 / isoTOP-ABPP reactivity ratio, Q15084_C190: 500 μm;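 on isoTOP-ABPP reactivity profile ratio, Q15084 C190: Heavy/light ratio DMSO over fragment-treated so higher means more cysteine engagement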
# T1 sequence (Q15084 20-440): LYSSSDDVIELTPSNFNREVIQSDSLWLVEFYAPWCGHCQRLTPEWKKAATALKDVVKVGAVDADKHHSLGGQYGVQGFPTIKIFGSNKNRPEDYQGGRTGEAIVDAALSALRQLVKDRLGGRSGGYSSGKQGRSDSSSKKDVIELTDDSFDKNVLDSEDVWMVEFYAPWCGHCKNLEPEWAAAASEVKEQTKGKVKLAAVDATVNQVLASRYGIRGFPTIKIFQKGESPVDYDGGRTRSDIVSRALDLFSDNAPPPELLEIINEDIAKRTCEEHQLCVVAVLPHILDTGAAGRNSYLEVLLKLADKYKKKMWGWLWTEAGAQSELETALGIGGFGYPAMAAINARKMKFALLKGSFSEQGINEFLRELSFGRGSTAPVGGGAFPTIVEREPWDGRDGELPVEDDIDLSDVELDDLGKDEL
# UBE2L3 C86 (P68036) = UBE2L3 C86 (P68036) (Homo sapiens, UniProt P68036); settings: for isoTOP-ABPP reactivity profile ratio, P68036_C86: 500 μm
# GNB2L1 C182 (P63244) = GNB2L1 C182 (P63244) (Homo sapiens, UniProt P63244); settings: for isoTOP-ABPP reactivity profile ratio, P63244_C182 / isoTOP-ABPP reactivity ratio, P63244_C182: 500 μm; for isoTOP-ABPP ratio, P63244_C182: 500 μM, invitro
# ZNF217 C286 (O75362) = ZNF217 C286 (O75362) (Homo sapiens, UniProt O75362); settings: for isoTOP-ABPP reactivity profile ratio, O75362_C286: 500 μm
# AIP C122 (O00170) = molecular target: T2, AIP C122 (O00170) (Homo sapiens, UniProt O00170)
# T2 sequence (O00170 1-330): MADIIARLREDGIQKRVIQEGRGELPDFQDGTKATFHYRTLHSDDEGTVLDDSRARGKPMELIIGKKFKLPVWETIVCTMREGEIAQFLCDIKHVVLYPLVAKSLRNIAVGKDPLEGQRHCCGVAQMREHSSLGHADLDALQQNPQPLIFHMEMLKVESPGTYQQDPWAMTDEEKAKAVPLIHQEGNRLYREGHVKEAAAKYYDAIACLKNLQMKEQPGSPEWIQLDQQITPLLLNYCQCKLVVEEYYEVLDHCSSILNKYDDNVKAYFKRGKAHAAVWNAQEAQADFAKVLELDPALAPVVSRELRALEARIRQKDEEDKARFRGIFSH
# UCHL3 C95 (P15374) = molecular target: T3, UCHL3 C95 (P15374) (Homo sapiens, UniProt P15374); settings: for isoTOP-ABPP reactivity profile ratio, P15374_C95: 500 μm; for isoTOP-ABPP ratio, P15374_C95: 500 μM, invitro
# T3 sequence (P15374 1-230): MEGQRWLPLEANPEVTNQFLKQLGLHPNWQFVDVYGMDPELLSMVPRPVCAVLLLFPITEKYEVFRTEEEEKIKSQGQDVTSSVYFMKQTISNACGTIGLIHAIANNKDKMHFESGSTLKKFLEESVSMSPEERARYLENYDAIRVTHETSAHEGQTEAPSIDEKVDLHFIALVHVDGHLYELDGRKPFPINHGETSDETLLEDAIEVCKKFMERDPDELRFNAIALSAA
# PRMT1 C109 (Q99873) = PRMT1 C109 (Q99873) (Homo sapiens, UniProt Q99873); settings: for isoTOP-ABPP reactivity profile ratio, Q99873_C109 / isoTOP-ABPP reactivity ratio, Q99873_C109: 500 μm; for isoTOP-ABPP ratio, Q99873_C109: 500 μM, invitro
# SMARCC2 C145 (Q8TAQ2) = SMARCC2 C145 (Q8TAQ2) (Homo sapiens, UniProt Q8TAQ2)
# SAMHD1 C522 (Q9Y3Z3) = SAMHD1 C522 (Q9Y3Z3) (Homo sapiens, UniProt Q9Y3Z3); settings: 500 μM, invitro, ramos
smiles,measurement,setting,value
O=C(CCl)Nc1cccc2ncccc12 [compound 51],"isoTOP-ABPP reactivity profile ratio, P09211_C48",GSTP1 C48 (P09211); in-vitro_ramos,1.0
same,"isoTOP-ABPP reactivity profile ratio, P09211_C48",GSTP1 C48 (P09211); in-vitro_ramos_231,1.1
same,"isoTOP-ABPP reactivity profile ratio, Q15084_C190",PDIA6 C190 (Q15084); in-vitro_ramos,5.6
same,"isoTOP-ABPP reactivity profile ratio, P68036_C86",UBE2L3 C86 (P68036); in-vitro_ramos,1.0
same,"isoTOP-ABPP reactivity profile ratio, P63244_C182",GNB2L1 C182 (P63244); in-vitro_ramos,0.9
same,"isoTOP-ABPP reactivity profile ratio, P63244_C182",GNB2L1 C182 (P63244); in-vitro_ramos_231,0.7
same,"isoTOP-ABPP reactivity profile ratio, O75362_C286",ZNF217 C286 (O75362); in-vitro_ramos,20.0
same,"isoTOP-ABPP reactivity profile ratio, O75362_C286",ZNF217 C286 (O75362); in-vitro_ramos_231,0.9
same,"isoTOP-ABPP reactivity profile ratio, O00170_C122","AIP C122 (O00170); 500 μm, in-vitro_ramos_231",1.4
same,"isoTOP-ABPP reactivity profile ratio, P15374_C95",UCHL3 C95 (P15374); in-vitro_ramos,0.9
same,"isoTOP-ABPP reactivity profile ratio, Q99873_C109",PRMT1 C109 (Q99873); in-vitro_ramos,9.5
same,"isoTOP-ABPP reactivity profile ratio, Q99873_C109",PRMT1 C109 (Q99873); in-vitro_ramos_231,0.9
same,blockade of IA-alkyne labeling of C109 of PRMT1,PRMT1 C109 (Q99873); competitive isoTOP-ABPP,blocking IA-alkyne labeling
same,"isoTOP-ABPP reactivity profile ratio, Q8TAQ2_C145","SMARCC2 C145 (Q8TAQ2); 500 μm, in-vitro_ramos",1.1
CC1CCc2ccccc2N1C(=O)CCl (stereo not shown) [compound 45],"isoTOP-ABPP reactivity profile ratio, P09211_C48",GSTP1 C48 (P09211); in-vitro_ramos_231,19.7
same,"isoTOP-ABPP reactivity profile ratio, P63244_C182",GNB2L1 C182 (P63244); in-vitro_ramos_231,0.9
same,"isoTOP-ABPP reactivity profile ratio, O75362_C286",ZNF217 C286 (O75362); in-vitro_ramos_231,20.0
same,"isoTOP-ABPP reactivity profile ratio, Q99873_C109",PRMT1 C109 (Q99873); in-vitro_ramos_231,2.2
O=C(CCl)Nc1ccccc1C1CCCCCC1 [compound 35],"isoTOP-ABPP reactivity ratio, P09211_C48",GSTP1 C48 (P09211); in-vitro_ramos,1.3
same,"isoTOP-ABPP reactivity ratio, P09211_C48",GSTP1 C48 (P09211); in-vitro_ramos_231,0.7
same,"isoTOP-ABPP reactivity ratio, Q15084_C190",PDIA6 C190 (Q15084); in-vitro_ramos_231,0.9
same,"isoTOP-ABPP reactivity ratio, P63244_C182",GNB2L1 C182 (P63244); in-vitro_ramos,0.9
same,"isoTOP-ABPP reactivity ratio, P63244_C182",GNB2L1 C182 (P63244); in-vitro_ramos_231,0.9
same,"isoTOP-ABPP reactivity ratio, Q99873_C109",PRMT1 C109 (Q99873); in-vitro_ramos,1.0
same,"isoTOP-ABPP reactivity ratio, Q99873_C109",PRMT1 C109 (Q99873); in-vitro_ramos_231,0.8
same,"isoTOP-ABPP reactivity ratio, Q8TAQ2_C145","SMARCC2 C145 (Q8TAQ2); 500 μm, in-vitro_ramos_231",0.9
C=CC(=O)N(c1ccccc1)C1CCCCC1 [compound 46],"isoTOP-ABPP reactivity profile ratio, P09211_C48",GSTP1 C48 (P09211); in-vitro_ramos_231,1.0
same,"isoTOP-ABPP reactivity profile ratio, Q15084_C190",PDIA6 C190 (Q15084); in-vitro_ramos_231,0.9
same,"isoTOP-ABPP reactivity profile ratio, P68036_C86",UBE2L3 C86 (P68036); in-vitro_ramos_231,1.2
same,"isoTOP-ABPP reactivity profile ratio, P63244_C182",GNB2L1 C182 (P63244); in-vitro_ramos_231,0.8
same,"isoTOP-ABPP reactivity profile ratio, O75362_C286",ZNF217 C286 (O75362); in-vitro_ramos_231,0.9
same,"isoTOP-ABPP reactivity profile ratio, P15374_C95",UCHL3 C95 (P15374); in-vitro_ramos_231,1.0
same,"isoTOP-ABPP reactivity profile ratio, Q99873_C109",PRMT1 C109 (Q99873); in-vitro_ramos_231,0.8
same,"isoTOP-ABPP reactivity profile ratio, Q8TAQ2_C145","SMARCC2 C145 (Q8TAQ2); 500 μm, in-vitro_ramos_231",1.0
O=C(CCl)N(Cc1ccc(F)cc1)C12CC3CC(CC(C3)C1)C2 [compound 34],"isoTOP-ABPP reactivity ratio, P09211_C48",GSTP1 C48 (P09211); in-vitro_ramos,1.0
same,"isoTOP-ABPP reactivity ratio, P09211_C48",GSTP1 C48 (P09211); in-vitro_ramos_231,0.8
same,"isoTOP-ABPP reactivity ratio, Q15084_C190",PDIA6 C190 (Q15084); in-vitro_ramos_231,0.9
same,"isoTOP-ABPP reactivity ratio, O00170_C122","AIP C122 (O00170); 500 μm, in-vitro_ramos_231",1.0
same,"isoTOP-ABPP reactivity ratio, Q99873_C109",PRMT1 C109 (Q99873); in-vitro_ramos,1.1
same,"isoTOP-ABPP reactivity ratio, Q99873_C109",PRMT1 C109 (Q99873); in-vitro_ramos_231,0.8
C=CC(=O)N(c1ccccc1)c1ccc(Br)cc1 [compound 5],"isoTOP-ABPP ratio, P09211_C48",GSTP1 C48 (P09211); 231,2.2
same,"isoTOP-ABPP ratio, P09211_C48",GSTP1 C48 (P09211); ramos,2.4
same,"isoTOP-ABPP ratio, Q15084_C190","PDIA6 C190 (Q15084); 500 μM, invitro, ramos",1.7
same,"isoTOP-ABPP ratio, P68036_C86","UBE2L3 C86 (P68036); 500 μM, invitro, ramos",4.8
same,"isoTOP-ABPP ratio, P63244_C182",GNB2L1 C182 (P63244); 231,1.5
same,"isoTOP-ABPP ratio, P63244_C182",GNB2L1 C182 (P63244); ramos,1.4
same,"isoTOP-ABPP ratio, Q9Y3Z3_C522",SAMHD1 C522 (Q9Y3Z3),5.4
same,"isoTOP-ABPP ratio, P15374_C95",UCHL3 C95 (P15374); 231,1.5
same,"isoTOP-ABPP ratio, P15374_C95",UCHL3 C95 (P15374); ramos,1.1
same,"isoTOP-ABPP ratio, Q99873_C109",PRMT1 C109 (Q99873); 231,0.9
same,"isoTOP-ABPP ratio, Q99873_C109",PRMT1 C109 (Q99873); ramos,1.3
same,isoTOP-ABPP ratio Q8TAQ2_C145,"SMARCC2 C145 (Q8TAQ2); 500 μM, invitro, ramos",2.8
N#C/C(=C\c1cc(C(F)(F)F)cc(C(F)(F)F)c1)C(N)=O [compound 23],"isoTOP-ABPP ratio (reactivity profile), P09211_C48",GSTP1 C48 (P09211); 500 μm in-vitro ramos,0.9
same,"isoTOP-ABPP ratio (reactivity profile), P09211_C48",GSTP1 C48 (P09211); 500 μm in-vitro ramos_231,0.8
same,"isoTOP-ABPP ratio (reactivity profile), Q15084_C190",PDIA6 C190 (Q15084); 500 μm in-vitro ramos,1.1
same,"isoTOP-ABPP ratio (reactivity profile), Q15084_C190",PDIA6 C190 (Q15084); 500 μm in-vitro ramos_231,0.8
same,"isoTOP-ABPP ratio (reactivity profile), P68036_C86",UBE2L3 C86 (P68036); 500 μm in-vitro ramos,13.2
same,"isoTOP-ABPP ratio (reactivity profile), P68036_C86",UBE2L3 C86 (P68036); 500 μm in-vitro ramos_231,7.4
same,"isoTOP-ABPP ratio (reactivity profile), P63244_C182",GNB2L1 C182 (P63244); 500 μm in-vitro ramos_231,4.6
same,"isoTOP-ABPP ratio (reactivity profile), O75362_C286",ZNF217 C286 (O75362); 500 μm in-vitro ramos_231,20.0
same,"isoTOP-ABPP ratio (reactivity profile), O00170_C122",AIP C122 (O00170); 500 μm in-vitro ramos,1.4
same,"isoTOP-ABPP ratio (reactivity profile), O00170_C122",AIP C122 (O00170); 500 μm in-vitro ramos_231,0.7
same,"isoTOP-ABPP ratio (reactivity profile), P15374_C95",UCHL3 C95 (P15374); 500 μm in-vitro ramos,1.1
same,"isoTOP-ABPP ratio (reactivity profile), P15374_C95",UCHL3 C95 (P15374); 500 μm in-vitro ramos_231,0.8
same,"isoTOP-ABPP ratio (reactivity profile), Q99873_C109",PRMT1 C109 (Q99873); 500 μm in-vitro ramos,1.0
same,"isoTOP-ABPP ratio (reactivity profile), Q99873_C109",PRMT1 C109 (Q99873); 500 μm in-vitro ramos_231,0.8
same,"isoTOP-ABPP ratio (reactivity profile), Q8TAQ2_C145",SMARCC2 C145 (Q8TAQ2); 500 μm in-vitro ramos_231,1.3
